Results from patent US8481546B2, “CGRP receptor antagonist” (Bristol-Myers Squibb Company, priority 2010, dated 2013).
Values after ≈ are worked out from the molar mass of the structure shown. Where two headings read alike, the source gives them in different places.

Experiments:
[1] = Aqueous solubility, pH dependence; assay type: physicochemical
Experimental: Solid free base was mixed with carbonate, and ethanolamine buffers. The pH of a third sample was adjusted with HCl. The solids were mixed with the vehicles using a mixer that was enclosed within an incubator set to 25 C. After equilibration, samples of the supernatant were withdrawn, diluted as appropriate, and analyzed by HPLC.
Crystalline Compound I converted to a gelatinous phase during measurement of the pH solubility profile. The absence of a crystalline phase in equilibrium with water prevents a confident assessment of the pH range in which Compound I can be formulated as a thermodynamically stable solution. Efforts to generate a crystalline free base form of Compound I that can be equilibrated in water are ongoing.

[2] = target: T1, CGRP receptor, SK-N-MC cell membrane preparation (Homo sapiens, UniProt O60894+Q16602); experiment: Saturation binding of [125I]CGRP with or without Compound I
T1 construct: endogenous in cells; host or cells: SK-N-MC human neuroblastoma cells (membrane homogenate or attached whole cells)
T1 sequence (Q16602 23-461): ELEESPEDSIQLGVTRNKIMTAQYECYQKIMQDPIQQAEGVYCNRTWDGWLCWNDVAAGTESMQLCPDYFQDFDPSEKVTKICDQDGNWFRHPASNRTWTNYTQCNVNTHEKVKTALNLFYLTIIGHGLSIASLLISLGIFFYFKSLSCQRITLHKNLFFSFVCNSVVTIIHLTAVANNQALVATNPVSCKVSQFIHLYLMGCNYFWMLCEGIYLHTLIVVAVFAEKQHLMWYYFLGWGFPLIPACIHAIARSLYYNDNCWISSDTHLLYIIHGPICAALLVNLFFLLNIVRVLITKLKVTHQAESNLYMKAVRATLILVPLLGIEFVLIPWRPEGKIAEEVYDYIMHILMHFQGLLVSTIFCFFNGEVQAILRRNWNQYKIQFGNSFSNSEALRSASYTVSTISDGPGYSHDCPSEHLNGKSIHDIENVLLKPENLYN
T1 sequence (O60894 27-148): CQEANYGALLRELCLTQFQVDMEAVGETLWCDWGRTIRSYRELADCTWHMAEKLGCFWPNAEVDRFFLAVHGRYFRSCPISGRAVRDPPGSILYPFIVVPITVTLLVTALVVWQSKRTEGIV
Experimental: The nature of the interaction between the endogenous CGRP peptide and Compound I is studied in detail using saturation binding experiments. Briefly, the binding of [^125I]CGRP to the SK-N-MC cell membrane preparation is measured with increasing concentration of [^125I]CGRP without (control condition) or in the presence of (test conditions) one of the two concentrations (30 pM and 100 pM) of Compound I. Saturation data are analyzed with hyperbolic equations using Kell software (Biosoft, Cambridge, UK) to estimate dissociation constant (Kd) and the maximum number of binding sites (Bmax). The impact of the addition of Compound I to the binding parameters (Kd, Bmax) of [^125I]CGRP is measured and compared.

[3] = system: CGRP-induced dilation of ex vivo human intracranial arteries; experiment: Schild analysis: inhibition of CGRP concentration-response curve in ex vivo human intracranial artery
Experimental: To assess functional antagonism against a range of CGRP concentrations, Compound I is pre-incubated with individual artery rings in the tissue bath and then a CGRP concentration-response curve is generated to achieve complete dilation (using multiple agonist and multiple antagonist doses). Higher concentrations of antagonist produce a ‘right-shift’ in the CGRP concentration-response curve, requiring greater concentrations of agonist to overcome the presence of antagonist and achieve full dilation. In short, wire mounted artery rings are pre-incubated with antagonist, then contracted with KCl (to mimic endogenous tone), and followed by addition of increasing concentrations of CGRP to achieve full relaxation.
Each wire mounted artery ring is pre-incubated for 30 min with a single concentration (0.1-30 nM) of the antagonist Compound I, then contracted with 10 mM KCl (to mimic endogenous tone), followed by addition of increasing concentrations of CGRP to achieve full relaxation. The KCl contraction is allowed to stabilize, such that total antagonist pretreatment time is approximately 45 min prior to application of CGRP.

[4] = system: olfactory epithelium (nasal tissues); experiment: One-week comparative intranasal irritation study in rats (Compound I vs Compound III): nasal histology and tolerability; assay type: in vivo; conditions: for Olfactory Epithelial Atrophy, incidence of severity Marked (number of rats) / Olfactory Epithelial Atrophy, incidence of severity Mild (number of rats) / Olfactory Epithelial Atrophy, incidence of severity Minimal (number of rats) / Olfactory Epithelial Atrophy, incidence of severity Moderate (number of rats) / Olfactory Epithelial Atrophy, incidence of severity None (number of rats): 1 week
Experimental: This study was conducted to compare potential nasal irritation of Compound I to Compound III when given intranasally to male rats for 1 week. Male rats (10/group) were instilled intranasally with Compound I or Compound III solutions ([…] in 225 mM succinic acid, 0.02% benzalkonium chloride, 1.25% anhydrous dextrose, pH 5.8-6.2) once daily at a dose volume of 100 μL/nostril. Using this dosing paradigm, fixed doses of 5, 15 or 35 mg of test article were delivered daily. As a consequence, dosages normalized to body weight decreased with time as the rats grew. One control group was given succinate vehicle and a sham control group was given saline by intranasal instillation. Parameters evaluated included clinical observations, body weight, food consumption, toxicokinetics, and histological evaluation of nasal tissues.

[5] = Pharmacokinetics in the rabbit after IV and IN administration; assay type: in vivo, New Zealand White rabbits
Experimental: The feasibility of nasal delivery was assessed in the IN rabbit model by comparing the plasma concentration-time profiles and pharmacokinetic parameters (Cmax, Tmax, AUC and bioavailability) for nasally delivered Compound I to that delivered by the IV route. The dosing solution concentration and delivery volume are included in the data tables for each study. Vehicle compositions are described in the footnotes below the table.
Groups of three male New Zealand White rabbits, ranging in weight from 3-3.5 kg, received a single dose of drug in one of the following treatments: 0.5 mg/kg IV bolus injection over 30 seconds, or 0.3-3 mg/kg IN administered with a syringe microsprayer. Prior to IN dosing, rabbits were lightly sedated to effect with the inhalant anesthetic, Sevoflurane. The rabbits regained consciousness in 2-5 min. Serial blood samples were collected in heparin-containing vacutainers at predose, 2, 5, 10, 15, 30 min and 1, 2, 4, 6, and 24 hours post-dose. Blood samples were immediately centrifuged at 4° C. and the separated plasma stored at −80° C. until further analysis by the LC/MS/MS assay.

[6] = in the presence of 30 pM Compound I
[7] = in the presence of 100 pM Compound I
[8] = nasal instillation 5 mg (0.357 mg/cm^2) once daily
[9] = nasal instillation 15 mg (1.07 mg/cm^2) once daily
[10] = nasal instillation 35 mg (2.50 mg/cm^2) once daily
[11] = male, New Zealand White, plasma, IV 0.5 mg/kg

Question: With `Cc1cc(C[C@@H](NC(=O)N2CCC(c3cc4ccccc4[nH]c3=O)CC2)C(=O)N2CCN(C3CCN(C)CC3)CC2)cc2cn[nH]c12` [Compound I, (R)—N-(3-(7-methyl-1H-indazol-5-yl)-1-(4-(1-methylpiperidin-4-yl)piperazin-1-yl)-1-oxopropan-2-yl)-4-(2-oxo-1,2-dihydroquinolin-3-yl)piperidine-1-carboxamide] as the molecule, how does the solubility ([1]; Partial titration of Compound I with HCl, pH = 8.5, 25 C) read?
Answer: 105000 µg/mL (≈ 164000 µM)

Question: What about the solubility ([1]; aqueous buffer, thermodynamic from solid, Carbonate buffer, pH = 10.4, 25 C, read-out: Solubility) of the same molecule?
Answer: 200 µg/mL (≈ 313 µM)

Question: And the solubility ([1]; aqueous buffer, thermodynamic from solid, Ethanolamine buffer, pH = 9.4, 25 C, read-out: Solubility)?
Answer: 500 µg/mL (≈ 783 µM)

Question: And the solubility ([1]; aqueous media, aqueous buffer, thermodynamic from solid, pH < 8.5, 25 C, read-out: Solubility)?
Answer: > 300000 µg/mL

Question: And the “Bmax of [125I]CGRP” value [2, 6]?
Answer: 112.1 ± 20.6 fmol/mg protein

Question: And the “Kd of [125I]CGRP” value [2, 6]?
Answer: 0.058 ± 0.0196 nM

Question: And the “Bmax of [125I]CGRP” value [2, 7]?
Answer: 146.8 ± 6.4 fmol/mg protein

Question: What about the “Kd of [125I]CGRP” value [2, 7] of the same molecule?
Answer: 0.1297 ± 0.0319 nM

Question: And the Kb [3]?
Answer: 0.091 nM

Question: And the “tolerability of intranasal administration” value ([4]; male rats, 5, 15 or 35 mg once daily for 1 week)?
Answer: well tolerated

Question: What about the “Olfactory Epithelial Atrophy, incidence of severity Marked (number of rats)” value [4, 8] of the same molecule?
Answer: 0

Question: What about the “Olfactory Epithelial Atrophy, incidence of severity Mild (number of rats)” value [4, 8] of the same molecule?
Answer: 0

Question: And the “Olfactory Epithelial Atrophy, incidence of severity Minimal (number of rats)” value [4, 8]?
Answer: 1

Question: And the “Olfactory Epithelial Atrophy, incidence of severity Moderate (number of rats)” value [4, 8]?
Answer: 0

Question: And the “Olfactory Epithelial Atrophy, incidence of severity None (number of rats)” value [4, 8]?
Answer: 8

Question: And the “Olfactory Epithelial Atrophy, incidence of severity Marked (number of rats)” value [4, 9]?
Answer: 0

Question: What about the “Olfactory Epithelial Atrophy, incidence of severity Mild (number of rats)” value [4, 9] of the same molecule?
Answer: 2

Question: What about the “Olfactory Epithelial Atrophy, incidence of severity Minimal (number of rats)” value [4, 9] of the same molecule?
Answer: 6

Question: And the “Olfactory Epithelial Atrophy, incidence of severity Moderate (number of rats)” value [4, 9]?
Answer: 0

Question: What about the “Olfactory Epithelial Atrophy, incidence of severity None (number of rats)” value [4, 9] of the same molecule?
Answer: 1

Question: What about the “Olfactory Epithelial Atrophy, incidence of severity Marked (number of rats)” value [4, 10] of the same molecule?
Answer: 0

Question: What about the “Olfactory Epithelial Atrophy, incidence of severity Mild (number of rats)” value [4, 10] of the same molecule?
Answer: 2

Question: And the “Olfactory Epithelial Atrophy, incidence of severity Minimal (number of rats)” value [4, 10]?
Answer: 3

Question: What about the “Olfactory Epithelial Atrophy, incidence of severity Moderate (number of rats)” value [4, 10] of the same molecule?
Answer: 0

Question: What about the “Olfactory Epithelial Atrophy, incidence of severity None (number of rats)” value [4, 10] of the same molecule?
Answer: 4

Question: What about the “time drug was detected in plasma post-dose” value ([5]; IN) of the same molecule?
Answer: at least 6 h

Question: And the “time drug was detected in plasma post-dose” value ([5]; IN, high dose)?
Answer: up to 24 hr

Question: And the Plasma levels ([5]; IN, measured within 5 min)?
Answer: > 10 nM

Question: And the MRT [5, 11]?
Answer: 22.8 ± 9 min

Question: What about the clearance [5, 11] of the same molecule?
Answer: 7.9 ± 3 mL/min/kg

Question: And the half-life [5, 11]?
Answer: 78 ± 15.6 min

Question: And the AUC ([5]; male, New Zealand White, plasma, IV 0.5 mg/kg, n = 3, Mean ± SD)?
Answer: 1.8 ± 0.58 µM·h

Question: And the Vd ([5]; male, New Zealand White, plasma, IV 0.5 mg/kg, read-out: Vss)?
Answer: 0.16 ± 0.01 L/kg

Question: And the Cmax ([5]; male, New Zealand White, plasma, inhaled or intranasal, 0.3 mg/kg, IN low dose 0.3 mg/kg (10 mg/ml), n = 3, Mean ± SD)?
Answer: 120 nM

Question: What about the bioavailability ([5]; male, New Zealand White, plasma, inhaled or intranasal, 0.3 mg/kg, IN low dose 0.3 mg/kg, read-out: Bioavailability (F %)) of the same molecule?
Answer: 12.5 ± 6.56%

Question: And the Cmax ([5]; male, New Zealand White, plasma, inhaled or intranasal, 1 mg/kg, IN mid-dose 1.0 mg/kg (30 mg/ml), n = 3, Mean ± SD)?
Answer: 550 ± 260 nM

Question: And the bioavailability ([5]; male, New Zealand White, plasma, inhaled or intranasal, 1 mg/kg, IN mid-dose 1.0 mg/kg, read-out: Bioavailability (F %))?
Answer: 18.8 ± 8.96%

Question: And the Cmax ([5]; male, New Zealand White, plasma, inhaled or intranasal, 3 mg/kg, IN high dose 3.0 mg/kg (100 mg/ml), n = 3, Mean ± SD)?
Answer: 2030 ± 1000 nM

Question: And the bioavailability ([5]; male, New Zealand White, plasma, inhaled or intranasal, 3 mg/kg, IN high dose 3.0 mg/kg, read-out: Bioavailability (F %))?
Answer: 30.2 ± 10.8%

Question: What about the Cmax ([5]; male, New Zealand White, plasma, inhaled or intranasal, 3 mg/kg, IN, range over 0.3, 1, and 3 mg/kg) of the same molecule?
Answer: 120 to 2000 nM

Question: What about the bioavailability ([5]; male, New Zealand White, plasma, inhaled or intranasal, 3 mg/kg, IN, range over 0.3, 1, and 3 mg/kg, read-out: absolute bioavailability) of the same molecule?
Answer: 13 to 30%

Question: And the AUC ([5]; male, New Zealand White, plasma, inhaled or intranasal, IN high dose 3.0 mg/kg (100 mg/ml), n = 3, Mean ± SD)?
Answer: 3.27 ± 1.17 µM·h

Question: What about the Tmax ([5]; male, New Zealand White, plasma, inhaled or intranasal, IN high dose 3.0 mg/kg, read-out: Tmax) of the same molecule?
Answer: 19.8 min

Question: What about the AUC ([5]; male, New Zealand White, plasma, inhaled or intranasal, IN low dose 0.3 mg/kg (10 mg/ml), n = 3, Mean ± SD) of the same molecule?
Answer: 0.14 ± 0.07 µM·h

Question: And the Tmax ([5]; male, New Zealand White, plasma, inhaled or intranasal, IN low dose 0.3 mg/kg, read-out: Tmax)?
Answer: 15 min

Question: What about the AUC ([5]; male, New Zealand White, plasma, inhaled or intranasal, IN mid-dose 1.0 mg/kg (30 mg/ml), n = 3, Mean ± SD) of the same molecule?
Answer: 0.69 ± 0.33 µM·h

Question: And the Tmax ([5]; male, New Zealand White, plasma, inhaled or intranasal, IN mid-dose 1.0 mg/kg, read-out: Tmax)?
Answer: 15 min

Question: And the Tmax ([5]; male, New Zealand White, plasma, inhaled or intranasal, IN, all doses studied, read-out: time to reach peak concentrations (Tmax))?
Answer: 12 to 18 min

Question: And the Cmax ([5]; male, New Zealand White, plasma, iv, 0.5 mg/kg, IV 0.5 mg/kg, n = 3, Mean ± SD)?
Answer: 13700 ± 1800 nM
